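Growth conditions: 96-well plates. Treatment: test compound, 48 hours, 5 concentrations. Analysis: linear interpolation between bracketing concentrations; unreached endpoints set to highest concentration. GI50: concentration for 50% inhibition of growth. The concentration for full growth arrest is given as TGI.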
Tests used:
Experiment in all cases: NCI-60 cell line screen, 48 h
[1] = system: 786-0 renal
[2] = system: A498 renal
[3] = system: A549 NSCLC
[4] = system: ACHN renal
[5] = system: BT-549 breast
[6] = system: CAKI-1 renal
[7] = system: CCRF-CEM leukemia
[8] = system: COLO 205 colon
[9] = system: DU-145 prostate
[10] = system: EKVX NSCLC
[11] = system: HCC-2998 colon
[12] = system: HCT-116 colon
[13] = system: HCT-15 colon
[14] = system: HL-60(TB) leukemia
[15] = system: HOP-62 NSCLC
[16] = system: HOP-92 NSCLC
[17] = system: HS 578T breast
[18] = system: HT29 colon
[19] = system: IGROV1 ovarian
[20] = system: K-562 leukemia
[21] = system: KM12 colon
[22] = system: LOX IMVI melanoma
[23] = system: M14 melanoma
[24] = system: MALME-3M melanoma
[25] = system: MCF7 breast
[26] = system: MDA-MB-231 breast
[27] = system: MDA-MB-435
[28] = system: MOLT-4 leukemia
[29] = system: NCI-H226 lung
[30] = system: NCI-H23 lung
[31] = system: NCI-H460 lung
[32] = system: NCI-H522 lung
[33] = system: NCI/ADR-RES ovarian
[34] = system: OVCAR-3 ovarian
[35] = system: OVCAR-4 ovarian
[36] = system: OVCAR-5 ovarian
[37] = system: OVCAR-8 ovarian
[38] = system: PC-3 prostate
[39] = system: RPMI-8226 leukemia
[40] = system: RXF 393 renal
[41] = system: SF-268 CNS
[42] = system: SF-295 CNS
[43] = system: SF-539 CNS
[44] = system: SK-MEL-2 melanoma
[45] = system: SK-MEL-28 melanoma
[46] = system: SK-MEL-5 melanoma
[47] = system: SK-OV-3 ovarian
[48] = system: SN12C renal
[49] = system: SNB-19 CNS
[50] = system: SNB-75 CNS
[51] = system: SR leukemia
[52] = system: SW-620 colon
[53] = system: T-47D breast
[54] = system: TK-10 renal
[55] = system: U251 CNS
[56] = system: UACC-257 melanoma
[57] = system: UACC-62 melanoma
[58] = system: UO-31 renal

`O=C1[C@@H]2Cc3c([nH]c4ccccc34)[C@H](c3c(Cl)cccc3Cl)N2C(=O)CN1C1CCN(Cc2ccccc2)CC1` showed a GI50 [1] of 2500 nM, a TGI [1] of 4700 nM and a GI50 [2] of 3490 nM. It also gave a TGI [2] of 12400 nM, a GI50 [3] of 2680 nM and a TGI [3] of 7200 nM. The GI50 [4] was 2190 nM, the TGI [4] was 4150 nM and the GI50 [5] was 2220 nM. It also gave a TGI [5] of 5170 nM, a GI50 [6] of 1810 nM and a TGI [6] of 4790 nM. For the same compound, the GI50 [7] was 4330 nM, the TGI [7] was over 14300 nM and the GI50 [8] was 4090 nM. For the same compound, the TGI [8] was over 14300 nM, the GI50 [9] was 4550 nM and the TGI [9] was over 14300 nM. It also gave a GI50 [10] of 6780 nM, a TGI [10] of over 14300 nM and a GI50 [11] of 2270 nM. It also gave a TGI [11] of 4720 nM, a GI50 [12] of 2600 nM and a TGI [12] of 5490 nM. The GI50 [13] was 2520 nM, the TGI [13] was 5090 nM and the GI50 [14] was 4030 nM. It also gave a TGI [14] of 13600 nM, a GI50 [15] of 2290 nM and a TGI [15] of 5660 nM. It also gave a GI50 [16] of 1550 nM, a TGI [16] of 7250 nM and a GI50 [17] of 2210 nM. The TGI [17] was 6520 nM, the GI50 [18] was 3230 nM and the TGI [18] was 8020 nM. For the same compound, the GI50 [19] was 2070 nM, the TGI [19] was 7520 nM and the GI50 [20] was 2980 nM. It also gave a TGI [20] of 7560 nM, a GI50 [21] of 4590 nM and a TGI [21] of over 14300 nM. The GI50 [22] was 2210 nM, the TGI [22] was 4540 nM and the GI50 [23] was 2420 nM. The TGI [23] was 6470 nM, the GI50 [24] was 2300 nM and the TGI [24] was 4870 nM. For the same compound, the GI50 [25] was 2130 nM, the TGI [25] was 4610 nM and the GI50 [26] was 2570 nM. The TGI [26] was 6270 nM, the GI50 [27] was 2360 nM and the TGI [27] was 4810 nM. It also gave a GI50 [28] of 3030 nM, a TGI [28] of 13800 nM and a GI50 [29] of 10600 nM. For the same compound, the TGI [29] was over 14300 nM, the GI50 [30] was 4770 nM and the TGI [30] was over 14300 nM. It also gave a GI50 [31] of 2820 nM, a TGI [31] of 5680 nM and a GI50 [32] of 2950 nM. The TGI [32] was 7700 nM, the GI50 [33] was 2780 nM and the TGI [33] was 6860 nM. For the same compound, the GI50 [34] was 2850 nM, the TGI [34] was 6830 nM and the GI50 [35] was 2420 nM. The TGI [35] was 5100 nM, the GI50 [36] was 3120 nM and the TGI [36] was 9290 nM. For the same compound, the GI50 [37] was 3800 nM, the TGI [37] was 13100 nM and the GI50 [38] was 3060 nM. The TGI [38] was 10700 nM, the GI50 [39] was 2740 nM and the TGI [39] was 8280 nM. It also gave a GI50 [40] of 1920 nM, a TGI [40] of 3860 nM and a GI50 [41] of 2820 nM. It also gave a TGI [41] of 10800 nM, a GI50 [42] of 2460 nM and a TGI [42] of 4620 nM. The GI50 [43] was 2370 nM, the TGI [43] was 4550 nM and the GI50 [44] was 4940 nM. It also gave a TGI [44] of over 14300 nM, a GI50 [45] of 2370 nM and a TGI [45] of 4550 nM. It also gave a GI50 [46] of 2400 nM, a TGI [46] of 4820 nM and a GI50 [47] of 2850 nM. It also gave a TGI [47] of 8470 nM, a GI50 [48] of 2350 nM and a TGI [48] of 5310 nM. It also gave a GI50 [49] of 5250 nM, a TGI [49] of over 14300 nM and a GI50 [50] of 719 nM. It also gave a TGI [50] of 3430 nM, a GI50 [51] of 2320 nM and a TGI [51] of 6920 nM. The GI50 [52] was 2930 nM, the TGI [52] was 7190 nM and the GI50 [53] was 2590 nM. It also gave a TGI [53] of 7950 nM, a GI50 [54] of 2580 nM and a TGI [54] of 5130 nM. It also gave a GI50 [55] of 2340 nM, a TGI [55] of 4630 nM and a GI50 [56] of 2460 nM. It also gave a TGI [56] of 5680 nM, a GI50 [57] of 2260 nM and a TGI [57] of 4660 nM. It also gave a GI50 [58] of 1430 nM and a TGI [58] of 3150 nM.

`CCNC(=O)N1CCc2cc(OC)c(OCCc3ccc(OC)c(N)c3)cc2C1c1ccc(C)cc1C` (centres undefined) was tested, and the GI50 [1] was 165 nM, the TGI [1] was 92000 nM and the GI50 [2] was 2780 nM. It also gave a GI50 [3] of 151 nM, a TGI [3] of over 100000 nM and a GI50 [4] of 121 nM. The TGI [4] was over 60400 nM, the GI50 [5] was 349 nM and the TGI [5] was 3460 nM. For the same compound, the GI50 [6] was 161 nM, the TGI [6] was 31400 nM and the GI50 [7] was 58.6 nM. For the same compound, the TGI [7] was over 76600 nM, the GI50 [8] was 318 nM and the TGI [8] was 2820 nM. For the same compound, the GI50 [9] was 208 nM, the TGI [9] was over 40800 nM and the GI50 [10] was 1510 nM. It also gave a TGI [10] of over 100000 nM, a GI50 [11] of 344 nM and a TGI [11] of 23300 nM. For the same compound, the GI50 [12] was 31.1 nM, the TGI [12] was 25800 nM and the GI50 [13] was under 26.3 nM. The TGI [13] was over 100000 nM, the GI50 [14] was 100 nM and the TGI [14] was 1820 nM. It also gave a GI50 [15] of 226 nM, a TGI [15] of over 46400 nM and a GI50 [16] of 4810 nM. For the same compound, the TGI [16] was 56700 nM, the GI50 [17] was 273 nM and the TGI [17] was 23800 nM. For the same compound, the GI50 [18] was 261 nM, the TGI [18] was 1770 nM and the GI50 [19] was 132 nM. It also gave a TGI [19] of over 100000 nM, a GI50 [20] of 29.1 nM and a TGI [20] of over 100000 nM. The GI50 [21] was 493 nM, the TGI [21] was 65900 nM and the GI50 [22] was 36.5 nM. The TGI [22] was 1740 nM, the GI50 [23] was 205 nM and the TGI [23] was 15200 nM. It also gave a GI50 [24] of 624 nM, a TGI [24] of 76100 nM and a GI50 [25] of 63.4 nM. The TGI [25] was over 83500 nM, the GI50 [26] was 134 nM and the TGI [26] was over 56300 nM. For the same compound, the GI50 [27] was 139 nM, the TGI [27] was 496 nM and the GI50 [28] was 38.4 nM. The TGI [28] was over 100000 nM, the GI50 [29] was 643 nM and the TGI [29] was 14600 nM. It also gave a GI50 [31] of 30.9 nM, a TGI [31] of 1890 nM and a GI50 [32] of 98.4 nM. For the same compound, the TGI [32] was 440 nM, the GI50 [33] was 229 nM and the TGI [33] was 2460 nM. It also gave a GI50 [34] of 150 nM, a TGI [34] of 22200 nM and a GI50 [35] of 1470 nM. The TGI [35] was over 100000 nM, the GI50 [36] was 538 nM and the TGI [36] was over 100000 nM. The GI50 [37] was 105 nM, the TGI [37] was 34300 nM and the GI50 [38] was 54.8 nM. It also gave a TGI [38] of over 100000 nM, a GI50 [39] of 89.9 nM and a TGI [39] of 1600 nM. For the same compound, the GI50 [40] was 234 nM, the TGI [40] was 5010 nM and the GI50 [41] was 278 nM. It also gave a TGI [41] of over 95300 nM, a GI50 [42] of 164 nM and a TGI [42] of 11100 nM. For the same compound, the GI50 [43] was 77.1 nM, the TGI [43] was 1740 nM and the GI50 [44] was 996 nM. For the same compound, the TGI [44] was 14400 nM, the GI50 [45] was 283 nM and the TGI [45] was 23300 nM. For the same compound, the GI50 [46] was 106 nM, the TGI [46] was 1700 nM and the GI50 [47] was 533 nM. The TGI [47] was over 90000 nM, the GI50 [48] was 294 nM and the TGI [48] was 22200 nM. For the same compound, the GI50 [49] was 191 nM, the TGI [49] was over 100000 nM and the GI50 [50] was 184 nM. For the same compound, the TGI [50] was 4270 nM, the GI50 [51] was 27 nM and the TGI [51] was 6240 nM. The GI50 [52] was 106 nM, the TGI [52] was over 100000 nM and the GI50 [53] was 280 nM. For the same compound, the TGI [53] was 92800 nM, the GI50 [54] was 2140 nM and the TGI [54] was over 100000 nM. The GI50 [55] was 74.3 nM, the TGI [55] was 24600 nM and the GI50 [56] was 533 nM. The TGI [56] was over 82000 nM, the GI50 [57] was 105 nM and the TGI [57] was 2750 nM. For the same compound, the GI50 [58] was 238 nM and the TGI [58] was over 95000 nM.

Source: PubChem BioAssay (NCI)
